Test results taken from PMC13598332, “Selective activation of tetrodotoxin-sensitive sodium channels by AaH-II drives arrhythmogenic late Na^+ current in the heart” (Europace, 2026).
Where two headings read alike, the source gives them in different places.

Assays:
hNav1.5 = hNav1.5 (Homo sapiens, UniProt Q14524); assay type: cell-based; conditions: for Na+ entry through hNav1.5 in action potential-mimicking protocol: 10 μM TTX-subtracted current
Wistar-Han rats = assay type: in vivo, rat; conditions: for QTc / RR / P wave / PR / QRS / T wave area: mean ± SEM
[1] = test system: adult rat ventricular myocytes; assay type: cell-based; conditions: HP −120 mV, 1-s pulse to −20 mV
hNav1.6 = hNav1.6 (Homo sapiens, UniProt Q9UQD0); assay type: cell-based
Chain of hNav1.6 (Q9UQD0 other isoform, or with tags, fused parts or gaps): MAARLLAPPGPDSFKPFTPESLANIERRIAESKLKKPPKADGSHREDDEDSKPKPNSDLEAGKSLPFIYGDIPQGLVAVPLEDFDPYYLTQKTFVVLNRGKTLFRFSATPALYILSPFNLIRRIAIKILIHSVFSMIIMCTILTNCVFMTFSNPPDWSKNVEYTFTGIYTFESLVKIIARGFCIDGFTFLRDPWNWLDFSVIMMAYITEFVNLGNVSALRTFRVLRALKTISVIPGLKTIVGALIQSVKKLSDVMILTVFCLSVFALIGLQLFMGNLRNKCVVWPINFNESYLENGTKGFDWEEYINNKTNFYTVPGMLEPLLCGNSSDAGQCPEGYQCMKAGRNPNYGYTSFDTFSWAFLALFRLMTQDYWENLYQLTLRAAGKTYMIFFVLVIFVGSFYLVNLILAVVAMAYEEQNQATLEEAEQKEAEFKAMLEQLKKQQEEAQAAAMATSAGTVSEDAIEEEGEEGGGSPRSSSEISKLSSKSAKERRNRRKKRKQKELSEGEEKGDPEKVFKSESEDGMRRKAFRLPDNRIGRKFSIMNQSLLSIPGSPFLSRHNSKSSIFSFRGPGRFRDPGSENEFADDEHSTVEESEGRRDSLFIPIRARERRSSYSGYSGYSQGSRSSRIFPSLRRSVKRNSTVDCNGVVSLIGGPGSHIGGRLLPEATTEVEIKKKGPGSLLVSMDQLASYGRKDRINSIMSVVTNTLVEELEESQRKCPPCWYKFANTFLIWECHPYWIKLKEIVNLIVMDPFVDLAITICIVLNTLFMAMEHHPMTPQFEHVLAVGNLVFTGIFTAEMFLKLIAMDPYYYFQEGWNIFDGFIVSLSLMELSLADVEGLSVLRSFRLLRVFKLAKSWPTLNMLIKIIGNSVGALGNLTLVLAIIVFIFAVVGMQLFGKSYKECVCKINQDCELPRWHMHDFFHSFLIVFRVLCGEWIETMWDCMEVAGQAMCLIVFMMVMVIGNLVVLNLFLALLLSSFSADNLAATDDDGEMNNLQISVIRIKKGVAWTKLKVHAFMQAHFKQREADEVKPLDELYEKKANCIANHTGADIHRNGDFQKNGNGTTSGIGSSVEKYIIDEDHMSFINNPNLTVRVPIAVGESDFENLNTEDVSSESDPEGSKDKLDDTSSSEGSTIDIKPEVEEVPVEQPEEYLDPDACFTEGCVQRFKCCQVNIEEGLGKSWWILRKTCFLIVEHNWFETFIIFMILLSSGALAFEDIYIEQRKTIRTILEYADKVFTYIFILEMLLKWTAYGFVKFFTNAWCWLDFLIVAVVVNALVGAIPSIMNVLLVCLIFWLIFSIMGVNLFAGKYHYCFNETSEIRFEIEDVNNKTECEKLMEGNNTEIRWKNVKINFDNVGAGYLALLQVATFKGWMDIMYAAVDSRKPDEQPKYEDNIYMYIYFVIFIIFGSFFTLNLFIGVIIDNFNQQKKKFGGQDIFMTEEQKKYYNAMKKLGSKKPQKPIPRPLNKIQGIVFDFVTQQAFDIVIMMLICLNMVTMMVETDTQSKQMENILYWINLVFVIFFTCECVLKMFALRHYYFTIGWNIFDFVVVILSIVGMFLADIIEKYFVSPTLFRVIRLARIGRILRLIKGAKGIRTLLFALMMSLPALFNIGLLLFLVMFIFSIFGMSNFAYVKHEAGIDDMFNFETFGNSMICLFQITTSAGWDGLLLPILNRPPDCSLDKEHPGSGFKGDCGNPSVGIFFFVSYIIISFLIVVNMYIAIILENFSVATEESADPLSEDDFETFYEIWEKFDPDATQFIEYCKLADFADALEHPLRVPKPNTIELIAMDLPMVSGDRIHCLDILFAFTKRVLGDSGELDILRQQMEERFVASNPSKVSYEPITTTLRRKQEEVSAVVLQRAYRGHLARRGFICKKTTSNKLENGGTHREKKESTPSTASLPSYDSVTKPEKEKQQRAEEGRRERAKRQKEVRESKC

[2] = test system: adult rat ventricular cardiomyocytes; test: Calcium imaging (SCR events) in isolated rat cardiomyocytes; assay type: cell-based
Experimental: Eleven-week-old Wistar Han rats were euthanized by intraperitoneal (i.p.) injection of a lethal dose of pentobarbital (140 mg/kg, Euthasol®). Subsequently, the hearts were quickly excised and rinsed in cold calcium-free Tyrode solution with the following composition (in mM): 118 NaCl, 4.17 KCl, 1.2 MgSO4, 1.2 KH2PO4, 21 NaHCO3, 11 glucose, and 5 taurine, at pH 7.4. The aorta was promptly cannulated, and the hearts were perfused in a retrograde fashion with warm (37–38°C) Tyrode containing 1.25 mM CaCl2 to flush the coronary arteries of blood and then with a Tyrode solution supplemented with 1 mg/mL collagenase type 2 (Worthington Biochemical Corp, Lakewood, NJ) and 0.2 U.mL^−1 protease type XIV (Sigma, Poole, UK) during 15–20 min. Once enzymatic digestion is completed, ventricles were shredded into small pieces with surgical scissors in 0.5 mM Ca^2+ Tyrode solution, filtered through a 200-µm mesh, and then resuspended in 1 mM Ca^2+ Tyrode solution for 1 h at RT. Isolated cardiomyocytes were incubated in the dark with Fura-2-AM calcium probe (2 µM in 20% v/v DMSO; Life Technologies) for 15 min. Cardiomyocytes were then loaded onto the IonOptix system (IonOptix Corporation, U.S.A.) and perfused with warm (37°C) Tyrode solution. Cardiomyocytes were stimulated at 0.5 Hz using a MyoPacer field stimulator (20 V, 7 ms) to achieve steady state. Fura-2 fluorescence (F) at 510 nm was used to measure cytoplasmic Ca^2+ concentration variation by exciting with UV light at 340 and 380 nm. Cells were paced for 1 to 2 min, ensuring stabilization of the signals, and the effects of the peptides were measured at the end of a 5 min application time. 30-s-long periods were used as the unit duration (representing 15 Ca^2+ transients) during control and after the perfusion of the compound to count the number of arrhythmogenic transients.

[3] = test system: human iPS-derived ventricular cardiomyocytes; assay type: cell-based; conditions: 0.1 nM; dynamic clamp, 1.43 Hz, 35–37°C; n = 10
[4] = test system: human iPS-derived cardiomyocytes; test: Automated patch-clamp of Na+ current in human iPS-derived cardiomyocytes; assay type: cell-based
Experimental: The control hiPSC cell line (ITXi002-A; IRX5-Wt[16]; RRID:CVCL_B5QD) was generated from primary dermal fibroblasts and previously characterized.[17–19] hiPSCs were maintained at 37°C, 5% CO2, 21% O2 in StemMacs PSC-Brew XF human medium (Miltenyi Biotec, #130-127-865) on culture plates coated with 0.05 mg/mL Matrigel hESC-Qualified Matrix (Corning, #354277) in DMEM F12 (Gibco, #11320033). At 75% confluency, the cells were passaged using the Gentle Cell Dissociation Reagent (StemCell Technologies, #07174).
We generated right ventricular-like cardioids on 96-well low-attachment plates using the Schmidt et al. (2023) protocol.[20] At D15.5, cardioids were pooled, dissociated, and replated as a monolayer in MW12 plates (Falcon, #353047) coated with Matrigel (Corning, #354277) for automated patch-clamp, and as single cells in 35-mm Petri dishes (NUNC #055055) coated with Matrigel for manual patch-clamp. Immediately before patch-clamp recording, cardiomyocytes were single-cell dissociated using Accutase (Sigma, #A6964).
For human iPSC-derived cardiomyocytes recordings, cells were resuspended at 300 000 cells/mL in a solution composed of 50% culture media and 50% extracellular buffer containing (in mM) 140 NaCl, 4 KCl, 2 CaCl2, 1 MgCl2, 5 glucose, and 10 HEPES (pH 7.4, osmolarity 298 mOsm) supplemented with 5 µM nifedipine. Single-hole, low-resistance chips (3–5 MΩ) were used. The intracellular solution contained (in mM) 10 KCl, 110 KF, 10 NaCl, 1 MgCl2, 1 CaCl2, 10 Ethylene Glycol Tetra-acetic Acid (EGTA), and 10 HEPES (pH 7.2, osmolarity 280 mOsm). Currents were recorded and analysed as previously described for stable cell lines.

hNav1.1 = hNav1.1 (Homo sapiens, UniProt P35498); assay type: cell-based

Chain of hNav1.5 (Q14524 other isoform, or with tags, fused parts or gaps): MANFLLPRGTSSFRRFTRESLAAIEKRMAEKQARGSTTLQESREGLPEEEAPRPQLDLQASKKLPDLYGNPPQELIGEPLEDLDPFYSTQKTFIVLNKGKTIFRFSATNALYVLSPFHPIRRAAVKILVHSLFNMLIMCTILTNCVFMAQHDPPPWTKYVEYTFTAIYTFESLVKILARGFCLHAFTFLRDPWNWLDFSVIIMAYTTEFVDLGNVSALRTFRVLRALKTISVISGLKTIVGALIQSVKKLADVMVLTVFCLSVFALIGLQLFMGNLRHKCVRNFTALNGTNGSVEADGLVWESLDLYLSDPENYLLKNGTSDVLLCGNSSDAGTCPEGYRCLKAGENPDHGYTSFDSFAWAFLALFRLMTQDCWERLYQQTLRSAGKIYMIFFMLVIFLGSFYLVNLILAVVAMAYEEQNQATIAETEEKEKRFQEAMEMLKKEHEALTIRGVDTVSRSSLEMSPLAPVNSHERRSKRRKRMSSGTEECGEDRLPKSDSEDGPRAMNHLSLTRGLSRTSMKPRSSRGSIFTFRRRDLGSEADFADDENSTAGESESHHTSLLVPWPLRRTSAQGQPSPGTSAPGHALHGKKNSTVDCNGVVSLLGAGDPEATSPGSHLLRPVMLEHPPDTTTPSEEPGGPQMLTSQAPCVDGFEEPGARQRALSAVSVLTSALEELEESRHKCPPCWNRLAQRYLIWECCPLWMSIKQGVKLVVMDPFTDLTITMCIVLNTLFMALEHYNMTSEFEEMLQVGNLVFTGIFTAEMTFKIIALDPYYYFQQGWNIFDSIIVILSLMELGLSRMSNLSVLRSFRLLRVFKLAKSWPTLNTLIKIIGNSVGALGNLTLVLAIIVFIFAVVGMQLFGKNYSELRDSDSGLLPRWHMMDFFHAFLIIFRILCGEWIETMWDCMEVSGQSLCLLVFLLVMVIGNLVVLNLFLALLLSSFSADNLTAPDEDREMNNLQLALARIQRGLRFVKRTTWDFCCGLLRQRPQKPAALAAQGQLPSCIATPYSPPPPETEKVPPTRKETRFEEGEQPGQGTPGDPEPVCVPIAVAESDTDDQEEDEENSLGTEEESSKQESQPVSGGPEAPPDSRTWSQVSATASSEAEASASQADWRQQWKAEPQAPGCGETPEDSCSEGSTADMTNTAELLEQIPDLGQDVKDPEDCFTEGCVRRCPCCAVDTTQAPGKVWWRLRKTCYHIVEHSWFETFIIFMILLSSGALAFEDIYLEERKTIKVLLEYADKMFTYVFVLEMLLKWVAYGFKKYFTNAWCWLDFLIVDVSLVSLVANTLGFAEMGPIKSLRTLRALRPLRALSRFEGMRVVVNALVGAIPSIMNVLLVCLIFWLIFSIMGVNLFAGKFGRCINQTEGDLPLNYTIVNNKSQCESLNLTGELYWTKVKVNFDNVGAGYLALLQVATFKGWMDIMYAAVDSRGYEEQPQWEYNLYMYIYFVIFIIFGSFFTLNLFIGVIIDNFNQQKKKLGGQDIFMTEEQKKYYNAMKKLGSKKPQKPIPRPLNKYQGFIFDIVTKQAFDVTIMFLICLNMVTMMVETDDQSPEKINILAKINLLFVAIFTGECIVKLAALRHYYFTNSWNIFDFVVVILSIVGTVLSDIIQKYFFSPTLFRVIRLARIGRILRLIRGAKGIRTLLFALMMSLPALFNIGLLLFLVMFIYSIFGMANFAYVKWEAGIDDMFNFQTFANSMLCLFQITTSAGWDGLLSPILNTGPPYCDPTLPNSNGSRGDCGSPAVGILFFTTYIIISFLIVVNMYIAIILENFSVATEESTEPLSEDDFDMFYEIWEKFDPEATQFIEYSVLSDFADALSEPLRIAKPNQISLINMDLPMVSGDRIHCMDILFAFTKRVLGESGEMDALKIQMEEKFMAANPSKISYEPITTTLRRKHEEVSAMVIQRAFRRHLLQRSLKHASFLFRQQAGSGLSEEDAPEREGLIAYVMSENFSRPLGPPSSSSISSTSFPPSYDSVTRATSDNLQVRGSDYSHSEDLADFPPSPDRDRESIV

CC[C@H](C)[C@H](NC(=O)[C@H](Cc1ccc(O)cc1)NC(=O)CNC(=O)[C@H](CC(=O)O)NC(=O)[C@H](CCCCN)NC(=O)[C@@H](N)C(C)C)C(=O)N[C@H](C(=O)N[C@@H](CC(=O)O)C(=O)N[C@@H](CC(=O)O)C(=O)N[C@H](C(=O)N[C@@H](CC(N)=O)C(=O)N[C@H]1CSSC[C@@H](C(=O)N[C@@H](Cc2c[nH]cn2)C(N)=O)NC(=O)[C@H](CCCCN)NC(=O)CNC(=O)[C@@H]2CCCN2C(=O)CNC(=O)[C@H](CCCCN)NC(=O)[C@H]([C@@H](C)O)NC(=O)[C@H](CCCNC(=N)N)NC(=O)[C@H](C(C)C)NC(=O)[C@H](Cc2c[nH]cn2)NC(=O)[C@H](CC(=O)O)NC(=O)[C@@H]2CCCN2C(=O)[C@H](CC(C)C)NC(=O)[C@H](CCCCN)NC(=O)[C@H](Cc2ccc(O)cc2)NC(=O)[C@@H]2CSSC[C@@H]3NC(=O)[C@H](CCC(=O)O)NC(=O)[C@H](CCC(=O)O)NC(=O)[C@H](CC(N)=O)NC(=O)[C@@H]4CSSC[C@H](NC(=O)[C@H](C)NC(=O)[C@H](CC(N)=O)NC(=O)CNC(=O)[C@H](Cc5ccc(O)cc5)NC(=O)[C@@H]5CCCN5C(=O)[C@H](CO)NC(=O)[C@H](C)NC(=O)[C@H](Cc5c[nH]c6ccccc56)NC(=O)[C@H](CCC(N)=O)NC(=O)[C@H](CSSC[C@H](NC(=O)[C@H](Cc5ccccc5)NC(=O)[C@H](Cc5ccc(O)cc5)NC(=O)[C@H]([C@@H](C)O)NC1=O)C(=O)NCC(=O)N[C@@H](CCCNC(=N)N)C(=O)N[C@@H](CC(N)=O)C(=O)N[C@@H](C)C(=O)N[C@@H](Cc1ccc(O)cc1)C(=O)N4)NC(=O)[C@H](Cc1ccc(O)cc1)NC(=O)CNC(=O)[C@H](CO)NC(=O)[C@H](CCC(=O)O)NC(=O)CNC(=O)[C@H](CCCCN)NC(=O)[C@H](CC(C)C)NC(=O)[C@H](CCCCN)NC(=O)[C@H]([C@@H](C)O)NC3=O)C(=O)N[C@@H](Cc1ccc(O)cc1)C(=O)N2)C(C)C)C(C)C [AaH-II*]
Na+ entry through hNav1.5 in action potential-mimicking protocol (hNav1.5; 0.1 nM): indistinguishable from the control condition | Na+ entry through hNav1.5 in action potential-mimicking protocol (hNav1.5; 10 nM): capable of generating a measurable Na^+ current | INaL after 1 s depolarization (hNav1.5; hNav1.5, 10 nM): absence of AaH-II*-mediated INaL after 1 s depolarization | shift in voltage-dependence of activation (hNav1.5; hNav1.5, 10 nM): lack of shift in the voltage-dependence of activation and inactivation | maximal INaL stimulation (maximal AUC) (hNav1.5; hNav1.5, highest effective AaH-II* concentration): ~19 fold | concentration at which INaL is triggered / becomes noticeable (hNav1.5; hNav1.5, representative traces, test 0 mV): 0.3 nM | arrhythmic rats (rats / all rats) (Wistar-Han rats; AaH-II* 3 μg/kg i.v.): none of the rats were arrhythmic | QTc (Wistar-Han rats; AaH-II* 3 µg/kg i.v., QTc = QT/(RR/100)^1/2, n = 5): 54.9 ± 5.2 | RR (Wistar-Han rats; AaH-II* 3 µg/kg i.v., anaesthetized rats, lead I, n = 5): 153.7 ± 5.6 ms | P wave (Wistar-Han rats; AaH-II* 3 µg/kg i.v., n = 5): 17.5 ± 0.3 ms | PR (Wistar-Han rats; AaH-II* 3 µg/kg i.v., n = 5): 47.5 ± 1.4 ms | QRS (Wistar-Han rats; AaH-II* 3 µg/kg i.v., n = 5): 16.9 ± 1.0 ms | T wave area (Wistar-Han rats; AaH-II* 3 µg/kg i.v., n = 5): 1.8 ± 0.5 mV/ms | rats with A-V blocks/ PVCs (rats / all rats) (Wistar-Han rats; AaH-II* 15 μg/kg i.v.): in all rats | P wave (Wistar-Han rats; AaH-II* 15 µg/kg i.v., n = 6): 18.0 ± 0.8 ms | PR (Wistar-Han rats; AaH-II* 15 µg/kg i.v., n = 6): 53.2 ± 5.4 ms | QRS (Wistar-Han rats; AaH-II* 15 µg/kg i.v., n = 6): 18.0 ± 0.6 ms | RR (Wistar-Han rats; AaH-II* 15 µg/kg i.v., n = 6): 181.6 ± 2.7 ms | T wave area (Wistar-Han rats; AaH-II* 15 µg/kg i.v., n = 6): 3.2 ± 0.5 mV/ms | P wave (Wistar-Han rats; AaH-II* 30 µg/kg i.v., n = 6): 18.9 ± 0.8 ms | PR (Wistar-Han rats; AaH-II* 30 µg/kg i.v., n = 6): 53.8 ± 2.2 ms | QRS (Wistar-Han rats; AaH-II* 30 µg/kg i.v., n = 6): 17.8 ± 0.3 ms | QTc (Wistar-Han rats; AaH-II* 30 µg/kg i.v., n = 6): 69.5 ± 3.3 | RR (Wistar-Han rats; AaH-II* 30 µg/kg i.v., n = 6): 176.8 ± 12.3 ms | T wave area (Wistar-Han rats; AaH-II* 30 µg/kg i.v., n = 6): 8.1 ± 1.9 mV/ms | AUC and INaL at 1 s depolarization ([1]; 0.1 nM, n = 6 cardiomyocytes): half of the cells responded with an increased AUC and INaL | peak current amplitude ([1]; 0.1 nM, n = 6 cardiomyocytes): None of the cells witnessed an increase in peak current amplitude | AUC and INaL at 1 s depolarization ([1]; 10 nM): significant increase in AUC and INaL in all cells recorded | activation of hNav1.6 current incl. INaL after TTX block (hNav1.6; 10 nM AaH-II* applied after 100 nM TTX): failed to activate any form of current | INaL after 1 s depolarization (hNav1.6; hNav1.6, 10 nM): maintained INaL after 1 s pulse | shift in voltage-dependence of activation (hNav1.6; hNav1.6, 10 nM): large AaH-II*-triggered hyperpolarizing shift in voltage-dependence of activation | concentration at which INaL is triggered / becomes noticeable (hNav1.6; hNav1.6, representative traces, test 0 mV): 0.1 nM | average frequency of SCR events ([2]; 0.1 nM AaH-II*): 14 SCR/min | cells presenting SCR events (SCR cells / cells) ([2]; 0.1 nM peptide, 0.5 Hz pacing, 37°C, 5 min application): 13 out of 23 | calcium transient amplitude and time to peak ([2]; 1 or 3 nM AaH-II*): slightly reduce the amplitude of the calcium transients and slow the time to peak | AP duration APD20, APD50, APD90 [3]: increase the AP duration | maximal diastolic potential, AP amplitude, dV/dtmax [3]: not significantly affected | INaL in human iPS-derived cardiomyocytes ([4]; 0.1 nM AaH-II*): triggered a characteristic INaL | INaL in human iPS-derived cardiomyocytes ([4]; 10 nM AaH-II*): a greater INaL could be recorded | INaL after 1 s depolarization (hNav1.1; 10 nM): maintained INaL after 1 s pulse | shift in voltage-dependence of activation (hNav1.1; 10 nM): large AaH-II*-triggered hyperpolarizing shift in voltage-dependence of activation | maximal INaL stimulation (maximal AUC) (hNav1.1; highest effective AaH-II* concentration): ~19 fold | concentration at which INaL is triggered / becomes noticeable (hNav1.1; representative traces, test 0 mV): 0.1 nM
